Laboratory results published in ChEMBL document CHEMBL3232857, “Selective and potent morpholinone inhibitors of the MDM2-p53 protein-protein interaction” (J Med Chem, 2014).
One block for each compound: values may come before it.

How the values were obtained:
[1] = (§1) Intrinsic clearance in human hepatocytes measured per 10^6 cells; assay type: ADME, cell-based, Hepatocyte; conditions: read-out: CLH
[2] = (§2) Intrinsic clearance in rat hepatocytes measured per 10^6 cells; assay type: ADME, cell-based, Hepatocyte; conditions: read-out: CLH
[3] = (§3) Intrinsic clearance in mouse hepatocytes measured per 10^6 cells; assay type: ADME, cell-based, Hepatocyte; conditions: read-out: CLH
[4] = Intrinsic clearance in dog hepatocytes measured per 10^6 cells; assay type: ADME, cell-based, Canis lupus familiaris, Hepatocyte
[5] = Clearance in rat at 0.5 mg/kg, iv; assay type: ADME, organism-based; design: dose 0.5 mg/kg, route intravenous; conditions: in vivo
[6] = Half life in rat at 0.5 mg/kg, iv; assay type: ADME, organism-based; design: dose 0.5 mg/kg, route intravenous; conditions: in vivo
[7] = (§4) Drug metabolism in mouse hepatocytes assessed as (2S,3S,4S,5R,6S)-6-(2-((2R,5R,6R)-4-((S)-2-(tert-butylsulfonyl)-1-cyclopropylethyl)-6-(3-chlorophenyl)-5-(4-chlorophenyl)-3-oxomorpholin-2-yl)acetoxy)-3,4,5-trihydroxytetrahydro-2H-pyran-2-carboxylic acid formation at 10 uM by LC-MS/MS analysis; assay type: ADME, cell-based, Hepatocyte
[8] = Drug metabolism in rat hepatocytes assessed as (2S,3S,4S,5R,6S)-6-(2-((2R,5R,6R)-4-((S)-2-(tert-butylsulfonyl)-1-cyclopropylethyl)-6-(3-chlorophenyl)-5-(4-chlorophenyl)-3-oxomorpholin-2-yl)acetoxy)-3,4,5-trihydroxytetrahydro-2H-pyran-2-carboxylic acid formation at 10 uM by LC-MS/MS analysis; assay type: ADME, cell-based, Hepatocyte
[9] = Drug metabolism in dog hepatocytes assessed as (2S,3S,4S,5R,6S)-6-(2-((2R,5R,6R)-4-((S)-2-(tert-butylsulfonyl)-1-cyclopropylethyl)-6-(3-chlorophenyl)-5-(4-chlorophenyl)-3-oxomorpholin-2-yl)acetoxy)-3,4,5-trihydroxytetrahydro-2H-pyran-2-carboxylic acid formation at 10 uM by LC-MS/MS analysis; assay type: ADME, cell-based, Canis lupus familiaris, Hepatocyte
[10] = as §4, with “cynomolgus monkey” for “mouse”; assay type: ADME, cell-based, Macaca fascicularis, Hepatocyte
[11] = Drug metabolism in human hepatocytes assessed as (2S,3S,4S,5R,6S)-6-(2-((2R,5R,6R)-4-((S)-2-(tert-butylsulfonyl)-1-cyclopropylethyl)-6-(3-chlorophenyl)-5-(4-chlorophenyl)-3-oxomorpholin-2-yl)acetoxy)-3,4,5-trihydroxytetrahydro-2H-pyran-2-carboxylic acid formation at 10 uM by LC-MS/MS analysis; assay type: ADME, cell-based, Hepatocyte
[12] = Drug metabolism in mouse hepatocytes assessed as 2-((2R,5R,6R)-6-(3-chlorophenyl)-5-(4-chlorophenyl)-4-((S)-1-cyclopropyl-2-(1-hydroxy-2-methylpropan-2-ylsulfonyl)ethyl)-3-oxomorpholin-2-yl)acetic acid formation at 10 uM by LC-MS/MS analysis; assay type: ADME, cell-based, Hepatocyte
[13] = Drug metabolism in rat hepatocytes assessed as 2-((2R,5R,6R)-6-(3-chlorophenyl)-5-(4-chlorophenyl)-4-((S)-1-cyclopropyl-2-(1-hydroxy-2-methylpropan-2-ylsulfonyl)ethyl)-3-oxomorpholin-2-yl)acetic acid formation at 10 uM by LC-MS/MS analysis; assay type: ADME, cell-based, Hepatocyte
[14] = Drug metabolism in dog hepatocytes assessed as 2-((2R,5R,6R)-6-(3-chlorophenyl)-5-(4-chlorophenyl)-4-((S)-1-cyclopropyl-2-(1-hydroxy-2-methylpropan-2-ylsulfonyl)ethyl)-3-oxomorpholin-2-yl)acetic acid formation at 10 uM by LC-MS/MS analysis; assay type: ADME, cell-based, Canis lupus familiaris, Hepatocyte
[15] = Drug metabolism in cynomolgus monkey hepatocytes assessed as 2-((2R,5R,6R)-6-(3-chlorophenyl)-5-(4-chlorophenyl)-4-((S)-1-cyclopropyl-2-(1-hydroxy-2-methylpropan-2-ylsulfonyl)ethyl)-3-oxomorpholin-2-yl)acetic acid formation at 10 uM by LC-MS/MS analysis; assay type: ADME, cell-based, Macaca fascicularis, Hepatocyte
[16] = Drug metabolism in human hepatocytes assessed as 2-((2R,5R,6R)-6-(3-chlorophenyl)-5-(4-chlorophenyl)-4-((S)-1-cyclopropyl-2-(1-hydroxy-2-methylpropan-2-ylsulfonyl)ethyl)-3-oxomorpholin-2-yl)acetic acid formation at 10 uM by LC-MS/MS analysis; assay type: ADME, cell-based, Hepatocyte
Hepatocyte [17] = assay: as §1; assay type: ADME, cell-based
Hepatocyte [18] = assay: as §2; assay type: ADME, cell-based
Hepatocyte [19] = assay: as §3; assay type: ADME, cell-based

SMILES: C[C@@H](CS(=O)(=O)C(C)(C)C)N1C(=O)[C@@H](CC(=O)O)O[C@H](c2cccc(Cl)c2)[C@H]1c1ccc(Cl)cc1
hepatocyte CLint [1]: 0.7 µL/min/1e6 cells

SMILES: CC[C@@H](CN(c1ccc(F)cc1F)S(=O)(=O)C1CC1)N1C(=O)[C@@H](CC(=O)O)O[C@H](c2cccc(Cl)c2)[C@H]1c1ccc(Cl)cc1
hepatocyte CLint [1]: 4.8 µL/min/1e6 cells

SMILES: CC[C@@H](CS(=O)(=O)C1COC1)N1C(=O)[C@@H](CC(=O)O)O[C@H](c2cccc(Cl)c2)[C@H]1c1ccc(Cl)cc1
hepatocyte CLint [1]: 6.6 µL/min/1e6 cells

SMILES: CC[C@@H](CS(=O)(=O)c1ccccc1)N1C(=O)[C@@H](CC(=O)O)O[C@H](c2cccc(Cl)c2)[C@H]1c1ccc(Cl)cc1
hepatocyte CLint [1]: 10 µL/min/1e6 cells

SMILES: CC(C)(C)[C@@H](CS(=O)(=O)C(C)(C)C)N1C(=O)[C@@H](CC(=O)O)O[C@H](c2cccc(Cl)c2)[C@H]1c1ccc(Cl)cc1
hepatocyte CLint [1]: 2.1 µL/min/1e6 cells

SMILES: CC(C)(C)S(=O)(=O)C[C@H](CC(F)(F)F)N1C(=O)[C@@H](CC(=O)O)O[C@H](c2cccc(Cl)c2)[C@H]1c1ccc(Cl)cc1
hepatocyte CLint [1]: 4.7 µL/min/1e6 cells
clearance [5]: 7.17 mL/min/kg
half-life [6]: 4 h

SMILES: CC[C@@H](CS(=O)(=O)C(C)(C)C)N1C(=O)[C@@H](CC(=O)O)O[C@H](c2cccc(Cl)c2)[C@H]1c1ccc(Cl)cc1
hepatocyte CLint [1]: 1.9 µL/min/1e6 cells
hepatocyte CLint (Hepatocyte [18]): 1.8 µL/min/1e6 cells
hepatocyte CLint (Hepatocyte [19]): 12 µL/min/1e6 cells
hepatocyte CLint [4]: 15.5 µL/min/1e6 cells
clearance [5]: 3.83 mL/min/kg
half-life [6]: 4.1 h

SMILES: CC[C@@H](CN(c1ccccc1F)S(=O)(=O)C(C)C)N1C(=O)[C@@H](CC(=O)O)O[C@H](c2cccc(Cl)c2)[C@H]1c1ccc(Cl)cc1
hepatocyte CLint [1]: 15 µL/min/1e6 cells

SMILES: CC[C@@H](CN(c1ccccc1F)S(=O)(=O)C1CC1)N1C(=O)[C@@H](CC(=O)O)O[C@H](c2cccc(Cl)c2)[C@H]1c1ccc(Cl)cc1
hepatocyte CLint [1]: < 0.1 µL/min/1e6 cells

SMILES: CC[C@@H](CS(=O)(=O)N(C)C)N1C(=O)[C@@H](CC(=O)O)O[C@H](c2cccc(Cl)c2)[C@H]1c1ccc(Cl)cc1
hepatocyte CLint [1]: 19 µL/min/1e6 cells

Continued, in another order:

hepatocyte CLint [1]: 1 µL/min/1e6 cells
hepatocyte CLint [2]: 3 µL/min/1e6 cells
hepatocyte CLint [3]: 6 µL/min/1e6 cells
hepatocyte CLint ([4]; read-out: CLH): 13 µL/min/1e6 cells
clearance [5]: 5.83 mL/min/kg
half-life [6]: 5.7 h
Drug metabolism [12]: metabolite_detected
Drug metabolism [13]: metabolite_detected
Drug metabolism [14]: metabolite_notdetected
Drug metabolism [15]: metabolite_detected
Drug metabolism [16]: metabolite_notdetected
SMILES: CC(C)(C)S(=O)(=O)C[C@H](C1CC1)N1C(=O)[C@@H](CC(=O)O)O[C@H](c2cccc(Cl)c2)[C@H]1c1ccc(Cl)cc1
Drug metabolism [7]: metabolite_detected
Drug metabolism [8]: metabolite_detected
Drug metabolism [9]: metabolite_notdetected
Drug metabolism [10]: metabolite_detected
Drug metabolism [11]: metabolite_notdetected

hepatocyte CLint [1]: 3.3 µL/min/1e6 cells
SMILES: CC[C@@H](CN(c1ccccc1)S(=O)(=O)C1CC1)N1C(=O)[C@@H](CC(=O)O)O[C@H](c2cccc(Cl)c2)[C@H]1c1ccc(Cl)cc1

hepatocyte CLint (Hepatocyte [17]): 15 µL/min/1e6 cells
hepatocyte CLint (Hepatocyte [18]): 6.7 µL/min/1e6 cells
hepatocyte CLint (Hepatocyte [19]): 18 µL/min/1e6 cells
hepatocyte CLint [4]: 68 µL/min/1e6 cells
SMILES: CC[C@@H](CS(=O)(=O)C(C)(C)C)N1C(=O)[C@@](C)(CC(=O)O)C[C@H](c2cccc(Cl)c2)[C@H]1c1ccc(Cl)cc1

hepatocyte CLint [1]: 12 µL/min/1e6 cells
SMILES: CC[C@@H](CS(=O)(=O)C1CCCC1)N1C(=O)[C@@H](CC(=O)O)O[C@H](c2cccc(Cl)c2)[C@H]1c1ccc(Cl)cc1

hepatocyte CLint [1]: 8.6 µL/min/1e6 cells
SMILES: CC[C@@H](CS(=O)(=O)CC(C)(C)C)N1C(=O)[C@@H](CC(=O)O)O[C@H](c2cccc(Cl)c2)[C@H]1c1ccc(Cl)cc1

hepatocyte CLint [1]: 2.1 µL/min/1e6 cells
SMILES: CC[C@@H](CS(=O)(=O)C(C)C)N1C(=O)[C@@H](CC(=O)O)O[C@H](c2cccc(Cl)c2)[C@H]1c1ccc(Cl)cc1

hepatocyte CLint [1]: 4.7 µL/min/1e6 cells
SMILES: CC[C@@H](CN(c1ccccc1F)S(C)(=O)=O)N1C(=O)[C@@H](CC(=O)O)O[C@H](c2cccc(Cl)c2)[C@H]1c1ccc(Cl)cc1

hepatocyte CLint [1]: 7 µL/min/1e6 cells
SMILES: CC[C@@H](CN(c1ccc(F)cc1)S(=O)(=O)C1CC1)N1C(=O)[C@@H](CC(=O)O)O[C@H](c2cccc(Cl)c2)[C@H]1c1ccc(Cl)cc1

hepatocyte CLint [1]: 1.7 µL/min/1e6 cells
clearance [5]: 1.83 mL/min/kg
half-life [6]: 6 h
SMILES: CC(C)[C@@H](CS(=O)(=O)C(C)(C)C)N1C(=O)[C@@H](CC(=O)O)O[C@H](c2cccc(Cl)c2)[C@H]1c1ccc(Cl)cc1
